These results are taken from patent publication US9873709B2 (priority 2013, dated 2018).

pIC50: −log10 of the molar value.

The subject of the experiment is JAK1-dependent STAT6 phosphorylation downstream of IL-13 stimulation in TF-1 human erythroleukemia cells. The experiment is described as follows: cells. Conditions: TF-1, read-out: IL-13-pSTAT6 IC50.
`CCOC(=O)N1CC=C(c2cccn3nc(Nc4ccc(C(=O)N5CCC(Cc6cccnc6)C5)cc4)nc23)CC1` (centres unmarked) [Example 2-426, ethyl 4-[2-[4-[3-(3-pyridylmethyl)pyrrolidine-1-carbonyl]anilino]-[1,2,4]triazolo[1,5-a]pyridin-8-yl]-3,6-dihydro-2H-pyridine-1-carboxylate]: the pIC50 was 7.29. Consider `CCOC(=O)N1CC=C(c2cccn3nc(Nc4ccc(C(=O)NCC5CCCNC5)cc4)nc23)CC1` (centres unmarked) [Example 2-427, ethyl 4-[2-[4-(3-piperidylmethylcarbamoyl)anilino]-[1,2,4]triazolo[1,5-a]pyridin-8-yl]-3,6-dihydro-2H-pyridine-1-carboxylate], for which the pIC50 was 6.67. `CCOC(=O)N1CC=C(c2cccn3nc(Nc4ccc(C(=O)NCCC5CCCCN5)cc4)nc23)CC1` (centres unmarked) [Example 2-428, ethyl 4-[2-[4-[2-(2-piperidyl)ethylcarbamoyl]anilino]-[1,2,4]triazolo[1,5-a]pyridin-8-yl]-3,6-dihydro-2H-pyridine-1-carboxylate]: the negative logarithm of the IC50 (pIC50) was 6.33.

Consider `CCOC(=O)N1CC=C(c2cccn3nc(Nc4ccc(C(=O)N5CCCN(c6ccncc6)CC5)cc4)nc23)CC1` [Example 2-429, ethyl 4-[2-[4-[4-(4-pyridyl)-1,4-diazepane-1-carbonyl]anilino]-[1,2,4]triazolo[1,5-a]pyridin-8-yl]-3,6-dihydro-2H-pyridine-1-carboxylate], for which the pIC50 is 7.56.

Take `CCOC(=O)N1CC=C(c2cccn3nc(Nc4ccc(C(=O)N5CC6(CN(C(C)=O)C6)C5)cc4)nc23)CC1` [Example 2-432, ethyl 4-[2-[4-(6-acetyl-2,6-diazaspiro[3.3]heptane-2-carbonyl)anilino]-[1,2,4]triazolo[1,5-a]pyridin-8-yl]-3,6-dihydro-2H-pyridine-1-carboxylate]: the pIC50 is 7.37.

For the compound `CCOC(=O)N1CC=C(c2cccn3nc(Nc4ccc(C(=O)NC5CCN(C)C5)cc4)nc23)CC1` (centres unmarked) [Example 2-433, ethyl 4-[2-[4-[(1-methylpyrrolidin-3-yl)carbamoyl]anilino]-[1,2,4]triazolo[1,5-a]pyridin-8-yl]-3,6-dihydro-2H-pyridine-1-carboxylate], the pIC50 was 7.88. Turning to `CCOC(=O)N1CC=C(c2cccn3nc(Nc4ccc(C(=O)N[C@H]5[C@@H]6CNC[C@@H]65)cc4)nc23)CC1` [Example 2-434, ethyl 4-[2-[4-[[(1S,5R)-3-azabicyclo[3.10]hexan-6-yl]carbamoyl]anilino]-[1,2,4]triazolo[1,5-a]pyridin-8-yl]-3,6-dihydro-2H-pyridine-1-carboxylate], the pIC50 was 6.64. For `CCOC(=O)N1CC=C(c2cccn3nc(Nc4ccc(C(=O)N5CC6(CCCCN6)C5)cc4)nc23)CC1` [Example 2-437, ethyl 4-[2-[4-(2,5-diazaspiro[3.5]nonane-2-carbonyl)anilino]-[1,2,4]triazolo[1,5-a]pyridin-8-yl]-3,6-dihydro-2H-pyridine-1-carboxylate] the value was 7.47. `O=C(CCC(F)(F)F)N1CC=C(c2cccn3nc(Nc4ccc(C(=O)N5CCCC56CCNC6)cc4)nc23)CC1` (centres unmarked) [Example 2-440, 1-[4-[2-[4-(1,7-diazaspiro[4.4]nonane-1-carbonyl)anilino]-[1,2,4]triazolo[1,5-a]pyridin-8-yl]-3,6-dihydro-2H-pyridin-1-yl]-4,4,4-trifluoro-butan-1-one]: the negative logarithm of the IC50 (pIC50) was 6.81. For `CN(CCN)C(=O)c1ccc(Nc2nc3c(C4=CCN(C(=O)CCC(F)(F)F)CC4)cccn3n2)cc1` [Example 2-441, N-(2-aminoethyl)-N-methyl-4-[[8-[1-(4,4,4-trifluorobutanoyl)-3,6-dihydro-2H-pyridin-4-yl]-[1,2,4]triazolo[1,5-a]pyridin-2-yl]amino]benzamide] the value was 7.08; for `O=C(CCC(F)(F)F)N1CC=C(c2cccn3nc(Nc4ccc(C(=O)N5CCCC6(CCCNC6)C5)cc4)nc23)CC1` (centres unmarked) [Example 2-443, 1-[4-[2-[4-(2,8-diazaspiro[5.5]undecane-2-carbonyl)anilino]-[1,2,4]triazolo[1,5-a]pyridin-8-yl]-3,6-dihydro-2H-pyridin-1-yl]-4,4,4-trifluoro-butan-1-one], 7.14.

`O=C(NCC1CCNC1)c1ccc(Nc2nc3c(C4=CCN(C(=O)CCC(F)(F)F)CC4)cccn3n2)cc1` (centres unmarked) [Example 2-444, N-(pyrrolidin-3-ylmethyl)-4-[[8-[1-(4,4,4-trifluorobutanoyl)-3,6-dihydro-2H-pyridin-4-yl]-[1,2,4]triazolo[1,5-a]pyridin-2-yl]amino]benzamide]: the pIC50 was 6.81. For `O=C(NC1CCNCC1)c1ccc(Nc2nc3c(C4=CCN(C(=O)CCC(F)(F)F)CC4)cccn3n2)cc1` [Example 2-445, N-(4-piperidyl)-4-[[8-[1-(4,4,4-trifluorobutanoyl)-3,6-dihydro-2H-pyridin-4-yl]-[1,2,4]triazolo[1,5-a]pyridin-2-yl]amino]benzamide] the value was 6.34; for `NCC1CCN(C(=O)c2ccc(Nc3nc4c(C5=CCN(C(=O)CCC(F)(F)F)CC5)cccn4n3)cc2)CC1` [Example 2-446, 1-[4-[2-[4-[4-(aminomethyl)piperidine-1-carbonyl]anilino]-[1,2,4]triazolo[1,5-a]pyridin-8-yl]-3,6-dihydro-2H-pyridin-1-yl]-4,4,4-trifluoro-butan-1-one], 6.68. For `NCC1CCN(C(=O)c2ccc(Nc3nc4c(C5=CCN(C(=O)CCC(F)(F)F)CC5)cccn4n3)cc2)C1` (centres unmarked) [Example 2-447, 1-[4-[2-[4-[3-(aminomethyl)pyrrolidine-1-carbonyl]anilino]-[1,2,4]triazolo[1,5-a]pyridin-8-yl]-3,6-dihydro-2H-pyridin-1-yl]-4,4,4-trifluoro-butan-1-one] the value was 6.56. To `O=C(CCC(F)(F)F)N1CC=C(c2cccn3nc(Nc4ccc(C(=O)N5CCO[C@@H]6CNC[C@H]65)cc4)nc23)CC1` [Example 2-448, 1-[4-[2-[4-[(4aR,7aR)-3,4a,5,6,7,7a-hexahydro-2H-pyrrolo[3,4-b][1,4]oxazine-4-carbonyl]anilino]-[1,2,4]triazolo[1,5-a]pyridin-8-yl]-3,6-dihydro-2H-pyridin-1-yl]-4,4,4-trifluoro-butan-1-one] belongs 6.92; to `O=C(CCC(F)(F)F)N1CC=C(c2cccn3nc(Nc4ccc(C(=O)N5C[C@H]6CN[C@H]6C5)cc4)nc23)CC1` [Example 2-449, 1-[4-[2-[4-[(1R,5R)-3,6-diazabicyclo[3.2.0]heptane-3-carbonyl]anilino]-[1,2,4]triazolo[1,5-a]pyridin-8-yl]-3,6-dihydro-2H-pyridin-1-yl]-4,4,4-trifluoro-butan-1-one], 6.45. In the case of `O=C(CCC(F)(F)F)N1CC=C(c2cccn3nc(Nc4ccc(C(=O)N5CCCCC56CCNCC6)cc4)nc23)CC1` [Example 2-450, 1-[4-[2-[4-(1,9-diazaspiro[5.5]undecane-1-carbonyl)anilino]-[1,2,4]triazolo[1,5-a]pyridin-8-yl]-3,6-dihydro-2H-pyridin-1-yl]-4,4,4-trifluoro-butan-1-one], the negative-log IC50 (pIC50) was 6.94.

Regarding `CN(C(=O)c1ccc(Nc2nc3c(C4=CCN(C(=O)CCC(F)(F)F)CC4)cccn3n2)cc1)C1CNC1` [Example 2-451], the pIC50 was 6.54. With `NCC12CC(CN1C(=O)c1ccc(Nc3nc4c(C5=CCN(C(=O)CCC(F)(F)F)CC5)cccn4n3)cc1)C2` [Example 2-452, 1-[4-[2-[4-[4-(aminomethyl)-3-azabicyclo[2.1.1]hexane-3-carbonyl]anilino]-[1,2,4]triazolo[1,5-a]pyridin-8-yl]-3,6-dihydro-2H-pyridin-1-yl]-4,4,4-trifluoro-butan-1-one], the pIC50 was 6.87.

Turning to `O=C(CCC(F)(F)F)N1CC=C(c2cccn3nc(Nc4ccc(C(=O)N5CCOC6CCNCC65)cc4)nc23)CC1` (centres unmarked) [Example 2-453, 1-[4-[2-[4-(2,3,4a,5,6,7,8,8a-octahydropyrido[4,3-b][1,4]oxazine-4-carbonyl)anilino]-[1,2,4]triazolo[1,5-a]pyridin-8-yl]-3,6-dihydro-2H-pyridin-1-yl]-4,4,4-trifluoro-butan-1one], the negative-log IC50 (pIC50) is 6.77. To `O=C(N[C@H]1[C@@H]2CNC[C@@H]21)c1ccc(Nc2nc3c(C4=CCN(C(=O)CCC(F)(F)F)CC4)cccn3n2)cc1` [Example 2-454, N-[(1R,5S)-3-azabicyclo[3.1.0]hexan-6-yl]-4-[[8-[1-(4,4,4-trifluorobutanoyl)-3,6-dihydro-2H-pyridin-4-yl]-[1,2,4]triazolo[1,5-a]pyridin-2-yl]amino]benzamide] belongs 7.06; to `O=C(NCCN1CCCCC1)c1ccc(Nc2nc3c(C4=CCN(C(=O)CCC(F)(F)F)CC4)cccn3n2)cc1` [Example 2-455, N-[2-(1-piperidyl)ethyl]-4-[[8-[1-(4,4,4-trifluorobutanoyl)-3,6-dihydro-2H-pyridin-4-yl]-[1,2,4]triazolo[1,5-a]pyridin-2-yl]amino]benzamide], 8.26. For `O=C(CCC(F)(F)F)N1CC=C(c2cccn3nc(Nc4ccc(C(=O)N5CCC(c6ccncc6)CC5)cc4)nc23)CC1` [Example 2-456, 4,4,4-trifluoro-1-[4-[2-[4-[4-(4-pyridyl)piperidine-1-carbonyl]anilino]-[1,2,4]triazolo[1,5-a]pyridin-8-yl]-3,6-dihydro-2H-pyridin-1-yl]butan-1-one] the value was 8.12.

For the compound `CN1C2COCC1CN(C(=O)c1ccc(Nc3nc4c(C5=CCN(C(=O)CCC(F)(F)F)CC5)cccn4n3)cc1)C2` [Example 2-458, 4,4,4-trifluoro-1-[4-[2-[4-(9-methyl-3-oxa-7,9-diazabicyclo[3.3.1]nonane-7-carbonyl)anilino]-[1,2,4]triazolo[1,5-a]pyridin-8-yl]-3,6-dihydro-2H-pyridin-1-yl]butan-1-one], the pIC50 was 7.34. For `CN1CCC(NC(=O)c2ccc(Nc3nc4c(C5=CCN(C(=O)CCC(F)(F)F)CC5)cccn4n3)cc2)C1` (centres unmarked) [Example 2-459, N-(1-methylpyrrolidin-3-yl)-4-[[8-[1-(4,4,4-trifluorobutanoyl)-3,6-dihydro-2H-pyridin-4-yl]-[1,2,4]triazolo[1,5-a]pyridin-2-yl]amino]benzamide] the value was 7.69.

In general, pIC50 refers to the IC50 on a negative log10 scale, so that one unit is a factor of ten.
